Our source for the Ki values is article PMC10044159, “Inhibitory effects of sulfenimides on human and bovine carbonic anhydrase enzymes” (Journal of Enzyme Inhibition and Medicinal Chemistry, 2023).

One assay deals with T1, hCA-II (Homo sapiens, UniProt P00918).
T1 construct: gene CA2
In words: CO2 hydratase assay (Wilbur-Anderson). Type of assay: biochemical. The text has this:
CO2 hydratase assay (Wilbur-Anderson) on hCA-II

Another assay concerns the target T2, hCA-I (Homo sapiens, UniProt P00915).
T2 construct: gene CA1
In words: CO2 hydratase assay (Wilbur-Anderson). The format is biochemical. The text has this:
CO2 hydratase assay (Wilbur-Anderson) on hCA-I

T2 sequence (P00915 2-261): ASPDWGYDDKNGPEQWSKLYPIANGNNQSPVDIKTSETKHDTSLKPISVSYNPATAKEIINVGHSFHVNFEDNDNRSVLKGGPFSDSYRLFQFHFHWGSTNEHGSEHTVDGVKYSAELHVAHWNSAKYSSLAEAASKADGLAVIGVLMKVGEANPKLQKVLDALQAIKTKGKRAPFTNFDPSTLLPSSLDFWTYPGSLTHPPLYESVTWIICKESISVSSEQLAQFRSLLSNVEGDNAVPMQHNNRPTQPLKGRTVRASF

Turning to `O=C1c2ccccc2C(=O)N1Sc1ccccc1` [1a], the Ki (usually the dissociation constant of the complex between target and ligand, obtained from inhibition or displacement) at hCA-II came out at 0.0515 µM; on hCA-I, 0.0585 µM.
As to `COc1ccc(SN2C(=O)c3ccccc3C2=O)cc1` [1c], the inhibition constant Ki amounted to 0.06 µM on hCA-II and 0.0379 µM at hCA-I.
For the compound `O=C1c2ccccc2C(=O)N1Sc1ccc([N+](=O)[O-])cc1` [1d], the Ki on hCA-II was found to be 0.152 µM; at hCA-I it was 0.119 µM.
The matching figures for `O=C1c2ccccc2C(=O)N1Sc1ccc(Cl)cc1` [1e]: 0.143 µM and 0.0321 µM.
The matching figures for `O=C1c2ccccc2C(=O)N1Sc1ccc(Br)cc1` [1f]: 0.044 µM and 0.023 µM.
Take `O=C1c2ccccc2C(=O)N1SCc1ccccc1` [1g]: the figures for the Ki at hCA-II and on hCA-I were 0.052 µM and 0.0408 µM, respectively.
On the same counts, the results for `O=C1c2ccccc2C(=O)N1SC1CCCCC1` [1h] are 0.0617 µM and 0.0503 µM.
As for `O=C1c2ccccc2C(=O)N1Sc1nc2ccccc2[nH]1` [1i], the inhibitory constant (Ki) at hCA-II was found to be 0.0546 µM; on hCA-I, 0.0254 µM.
